The text below walks through data of patent US20090176846A1, “N-hydroxy-4- {5- [4- (5-isopropyl-2-methyl-1, 3-thiazol-4-yl) phenoxy] pentoxy} benzamidine 2 methanesulfonic acid salt” (priority 2005, published 2009).

A word on the solubility: it is the concentration that dissolves in the medium under given conditions. For orientation: bioavailability means the share of a dose that reaches the circulation, judged against a reference dose that is usually intravenous.

A short description of data set [1]: Solubility in various solvents at room temperature. The data set is classed as physicochemical. The source says: The 2 methanesulfonic acid salt, prepared in Example 1, and the 1 methanesulfonic acid salt, prepared in Comparative Example 1, of N-Hydroxy-4-{5-[4-(5-isopropyl-2-methyl-1,3-thiazol-4-yl)phenoxy]pentoxy} benzamidine, and the N-Hydroxy-4-{5-[4-(5-isopropyl-2-methyl-1,3-thiazol-4-yl)phenoxy]pentoxy} benzamidine, prepared in Reference Preparation Example 1, were examined for solubility (μg/mL) in various solvents at room temperature.

Data set [2] can be described thus: Pharmacokinetic evaluation in SD rats. To be noted: 50 mg/kg; for Cmax (maximum blood concentration): n=4. The data set is classed as in vivo. The protocol: The 2 methanesulfonic acid salt, prepared in Example 1, and the 1 methanesulfonic acid salt, prepared in Comparative Example 1, of N-Hydroxy-4-{5-[4-(5-isopropyl-2-methyl-1,3-thiazol-4-yl)phenoxy]pentoxy} benzamidine, and the N-Hydroxy-4-{5-[4-(5-isopropyl-2-methyl-1,3-thiazol-4-yl)phenoxy]pentoxy} benzamidine, prepared in Reference Preparation Example 1, were individually administered to SD rats in a dosage of 50 mg/kg. At given time points (0, 0.5, 1, 1.5, 2, 3, 5 and 8 hrs), rats were mildly anesthetized with diethyl ether, and blood samples were collected from the orbital venous plexus and stored at −20° C. until concentration analysis. The plasma samples were mixed with an equal volume of an internal standard substance solution (prepared by dissolving betamethasone in acetonitrile to give a final concentration of 30 μg/ml) with agitation for. 1 min, and was centrifuged at 12,000 rpm for 10 min. Active components of the plasma samples were analyzed by HPLC (Model: Waters Module 1). From the obtained data, pharmacokinetic parameters (maximum blood concentration (Cmax) and area under the blood concentration-time curve (AUC) were calculated by noncompartment analysis using the WinNonlin program (Version 1.0, Scientific Consulting Inc., USA). The results are given in Table 5, below.

The nature of data set [3]: Stability under accelerated conditions (40±2° C./75±5% RH), HPLC content. The data set is classed as physicochemical. The settings on record: for Content (%): 40±2° C./75±5% RH, cap-opened vial, HPLC area percentage. The protocol: The 2 methanesulfonic acid salt of N-Hydroxy-4-{5-[4-(5-isopropyl-2-methyl-1,3-thiazol-4-yl)phenoxy]pentoxy} benzamidine, prepared in Example 1, was placed into a transparent glass vial, and stored at a cap-opened state under accelerated conditions (40±2° C./75±5% RH) for a period of two weeks. Thereafter, the sample was analyzed by HPLC (Waters Module 1). The analysis was performed using a column packed with an octadecyl-silylated silica gel (Shiseido CAPCELL PAK C18, UG 120, Particle size 5 μm) under conditions: UV detection: 256 nm, injection volume: 10 μl, mobile-phase flow rate: 1.5 mL/min. The amount of the compound was calculated as an area percentage.

The subject of a further data set is bone fractures. The settings on record: rats, compared to control not treated; cited from earlier work.
Data set [4] concerns allergic inflammatory diseases (asthma). To be noted: asthmatic mice, cited from earlier work.
Where [5] appears, read: distilled water, room temperature.
Setting [6] is: dose-dependent, compared to control group.

In brackets after ≈: the same amount, converted by molar mass. Counter-ions that a name gives are not always drawn. Like-named read-outs stand apart in the source and are kept apart here.

With `CS(=O)(=O)O.Cc1nc(-c2ccc(OCCCCCOc3ccc(C(=N)NO)cc3)cc2)c(C(C)C)s1` [1 methanesulfonic acid salt, N-Hydroxy-4-{5-[4-(5-isopropyl-2-methyl-1,3-thiazol-4-yl)phenoxy]pentoxy} benzamidine 1 methanesulfonic acid salt], the solubility in data set [1] (setting [5]) is 414.34 µg/mL; in data set [1] (pH 1.2, room temperature), 1,092.98 μg/mL; in data set [1] (pH 4.0, room temperature), 0.99 µg/mL. Also, the “Cmax (maximum blood concentration)” value in data set [2] was determined as 1400 ± 110 ng/mL. The molecule further came in with an AUC (area under the blood concentration-time curve) in data set [2] (n=4, 0-8 hrs) of 7010 ± 600 ng·h/mL.

Take `Cc1nc(-c2ccc(OCCCCCOc3ccc(C(=N)NO)cc3)cc2)c(C(C)C)s1` [2 methanesulfonic acid salt, N-Hydroxy-4-{5-[4-(5-isopropyl-2-methyl-1,3-thiazol-4-yl)phenoxy]pentoxy} benzamidine 2 methansulfonic acid salt]: the solubility in data set [1] (setting [5]) was 3,535.33 μg/mL; in data set [1] (pH 1.2, room temperature), 1,686.71 μg/mL; in data set [1] (solvent of pH 4.0 (composition not named), pH 4, aqueous buffer, pH 4.0, room temperature, read-out: solubility), 3 µg/mL. For the same molecule, in data set [1] (pH 4.0), the “solubility fold higher than the 1 methanesulfonic acid salt” value is listed as “about 3 fold”. Also, the “change in content in accelerated test” value in data set [3] (accelerated test at 40° C., two weeks) is “no change”. The “Content (%)” value in data set [3] (after 1 week) came out at 99.87%; in data set [3] (after 2 weeks), 99.86%; in data set [3] (after 2 days) it was 99.86%; in data set [3] (early stage) it was 99.85%. Also, in data set [2], the “Cmax (maximum blood concentration)” value stood at 1670 ± 320 ng/mL. Besides, the AUC (area under the blood concentration-time curve) in data set [2] (n=4, 0-8 hrs) turned out to be 10300 ± 800 ng·h/mL. Further, the bioavailability in data set [2] (SD, rat, plasma, read-out: bioavailability relative to the 1 methanesulfonic acid salt) is over 46%.

On to `Cc1nc(-c2ccc(OCCCCCOc3ccc(C(=N)NO)cc3)cc2)c(C(C)C)s1` [Free base, N-Hydroxy-4-{5-[4-(5-isopropyl-2-methyl-1,3-thiazol-4-yl)phenoxy]pentoxy} benzamidine], for which the solubility in data set [1] (setting [5]) came to 3.48 µg/mL (≈ 7.67 µM). In addition, the solubility in data set [1] (solvent of pH 1.2 (composition not named), pH 1.2, simulated gastric fluid, pH 1.2, room temperature, read-out: solubility) was 951 µg/mL (≈ 2100 µM). In data set [2] (SD, rat, plasma, n=4, 0-8 hrs, read-out: AUC (area under the blood concentration-time curve)), the AUC was determined as 5310 ± 490 ng·h/mL. Also, the Cmax in data set [2] (SD, rat, plasma, n=4, read-out: Cmax (maximum blood concentration)) came out at 1090 ± 170 ng/mL. Besides, in the data set on bone fractures, the “bone mineral content of callus” value is listed as “significantly enhanced”; the bone tissue density result is “significantly increased”; the callus volume was “significantly reduced”; the “content of connective and soft tissues in the callus tissue” value is recorded as “significantly reduced”. In the data set on bone fractures, the “mechanical strength of callus” value is recorded as “significantly enhanced”. For the same molecule, the alveolar area entry in data set [4] (compared to control group) is given as “significantly increased”. Further, in data set [4] (setting [6]), the number of eosinophils result is given as “significantly decreased”, the “number of eosinophils in bronchoalveolar lavage fluid” value is reported as “significantly decreased” and the “total number of leukocytes” value was “significantly decreased”. In addition, the “increase in lung weight” value in data set [4] (oral administration for 18 days, compared to control given sterile distilled water) was “suppressed”.
